Results from patent publication US7423061B2, “Substitute thiophenes and uses thereof” (AstraZeneca AB, priority 2003, dated 2008).
Counter-ions that a name gives are not always drawn.

Biological target: T1, CHK1 kinase (Homo sapiens, UniProt O14757)
T1 construct: The kinase domain is expressed in baculovirus and purified by the GST tag; GST; made in house
T1 sequence (O14757 9-265 limits assumed): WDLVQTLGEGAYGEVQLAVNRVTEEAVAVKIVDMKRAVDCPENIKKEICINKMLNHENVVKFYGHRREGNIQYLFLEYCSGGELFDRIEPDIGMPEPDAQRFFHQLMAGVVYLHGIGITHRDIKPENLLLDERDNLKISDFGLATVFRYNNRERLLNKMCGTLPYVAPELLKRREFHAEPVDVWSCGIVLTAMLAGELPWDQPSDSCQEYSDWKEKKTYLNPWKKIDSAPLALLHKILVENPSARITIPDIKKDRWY
Experiment: Checkpoint Kinase 1 Assay (Scintillation Proximity Assay)
Assay type: biochemical
Settings: assay not given; IC50s are determined in the Checkpoint Kinase 1 assay
Experimental: Checkpoint Kinase 1 Assay: This in vitro assay measures the inhibition of CHK1 kinase by compounds. The kinase domain is expressed in baculovirus and purified by the GST tag. Purified protein and biotinylated peptide substrate (Cdc25C) is then used in a 384 well automated Scintillation Proximity Assay (SPA). Specifically, peptide, enzyme and reaction buffer are mixed and aliquoted into a 384 well plate containing dilution series of compounds and controls. Cold and hot ATP are then added to initiate the reaction. After 2 hours, a SPA bead slurry, […] and EDTA are added to stop the reaction and capture the biotinylated peptide. Plates are then counted on a Topcount. Data is analyzed and IC50s determined for individual compounds.

CCN(CC)CCOc1ccc(-c2cc(C(=O)NC3CCCNC3)c(NC(N)=O)s2)cc1 (stereo not shown) [Example 2, 2-[(aminocarbonyl)amino]-5-{4-[2-(diethylamino)ethoxy]phenyl}-N-piperidin-3-ylthiophene-3-carboxamide trifluoroacetate]
IC50: 10 nM
